≈ marks a conversion by molar mass, not a printed value. Like-named read-outs stand apart in the source and are kept apart here.
Columns and labels:
Assay in all cases: Broth microdilution MIC
E. faecalis ATCC 29212 = assay type: cell-based, Enterococcus faecalis; conditions: for MIC: Enterococcus faecalis, ATCC29212, E. faecalis ATCC 29212, read-out: Minimal Inhibitory Concentration; for Minimal Inhibitory Concentration: E. faecalis ATCC 29212
Protocol: (§1) The process for preparing susceptibility test medium are the following steps: • a. Preparing Mueller Hinton Broth II medium by adding 22 grams powdered media to 1.0 liter distilled water; • b. Autoclaving (121° C., 15 psi, 15 minutes) and cooling the medium; • c. Adding Oxyrase® up to about 10% final volume and keeping at 35-37° C. in an incubator for 30 minutes; • d. Adding about 50 μL to each well of a 96 well microtiter plate; • e. Weighing drug and adding broth to drug to bring up to about (standard 128 μg/ml); • f. Adding 50 μL of the drug to the first column of the titer plate; • g. Diluting by two-fold serial diluting across or down the plate. • h. Preparing a Prompt™ inoculum at 10^8 CFU/ml; • i. Diluting inoculum 1:100 in the broth at […] in 9.9 ml (1:100) is 10^6 colony forming units (CFU) forming the adjusted inoculum; • j. Adding 50 μL of the adjusted inoculum to the wells of the microtiter plate; • k. Incubating the plates at 35-37° C. for 18-22 hours; and • l. Reading, with the unaided eye, the MIC.
(§2) The in vitro activities of tigecycline and control antibiotics were determined by the broth microdilution method as recommended by the NCCLS. (National Committee for Clinical Laboratory Standards, 2003. Methods for Dilution Antimicrobial Susceptibility Tests for Bacteria That Grow Aerobically; Approved Standards: M7-A6, Sixth ed, vol. 23., National Committee for Clinical Laboratory Standards Wayne, Pa.) was used for the standard procedures. MBH with 5% lysed horse blood was used for testing S. pneumoniae and Haemophilus Test Medium was used for testing H. influenzae. Oxyrase® (Oxyrase Inc, Mansfield, Ohio) was used according to the manufacturer's instructions by adding 1 ml of Oxyrase® to 50 ml of media. Media age studies were performed by preparing MHB in multiple flasks, then storing the media under various conditions. MICs were usually performed in duplicate on each day of testing. Storage under anaerobic conditions was conducted in an anaerobic chamber (MACS MG 1000, Don Whitley Scientific LTD). The pH of the media was determined by pH meter (Corning 430). A comparison of the in vitro activity of tigecycline by agar and broth dilution methodolgies with and without Oxyrase® against clinical isolates is shown in Table 1.

P. aeruginosa ATCC 27853 = assay type: cell-based, Pseudomonas aeruginosa; conditions: for MIC: Pseudomonas aeruginosa, ATCC27853, P. aeruginosa ATCC 27853, read-out: Minimal Inhibitory Concentration; for Minimal Inhibitory Concentration: P. aeruginosa ATCC 27853
Protocol: as §1, §2

E. coli ATCC 25922 = assay type: cell-based, Escherichia coli; conditions: for MIC: Escherichia coli, ATCC25922, E. coli ATCC 25922, read-out: Minimal Inhibitory Concentration; for Minimal Inhibitory Concentration: E. coli ATCC 25922
Protocol: as §1, §2

S. aureus ATCC 25923 = assay type: cell-based, Staphylococcus aureus; conditions: for MIC: Staphylococcus aureus, ATCC25923, S. aureus ATCC 25923, read-out: Minimal Inhibitory Concentration; for Minimal Inhibitory Concentration: S. aureus ATCC 25923
Protocol: as §1, §2

S. aureus ATCC 29213 = assay type: cell-based, Staphylococcus aureus; conditions: Staphylococcus aureus, ATCC29213, S. aureus ATCC 29213, read-out: Minimal Inhibitory Concentration
Protocol: as §1, §2

[1] = Mueller Hinton Broth II (Fresh)
[2] = Mueller Hinton Broth II (MHB II)

Row | Structure (SMILES) | MIC (E. faecalis ATCC 29212; MHB II + 0.05% Catalase) | MIC (E. faecalis ATCC 29212; MHB II + 0.05% L-ascorbic Acid) | MIC (E. faecalis ATCC 29212; MHB II + 0.05% L-cysteine) | MIC (E. faecalis ATCC 29212; MHB II + 0.05% Sodium Pyruvate) | MIC (E. faecalis ATCC 29212; MHB II + 0.05% Thioglycolate) | MIC (E. faecalis ATCC 29212; [1]) | MIC (E. coli ATCC 25922; MHB II + 0.05% Catalase) | MIC (E. coli ATCC 25922; MHB II + 0.05% L-ascorbic Acid) | MIC (E. coli ATCC 25922; MHB II + 0.05% L-cysteine) | MIC (E. coli ATCC 25922; MHB II + 0.05% Sodium Pyruvate) | MIC (E. coli ATCC 25922; MHB II + 0.05% Thioglycolate) | MIC (E. coli ATCC 25922; MHB II + 2% Oxyrase) | MIC (E. coli ATCC 25922; [1]) | MIC (E. coli ATCC 25922; [2]) | MIC (S. aureus ATCC 25923; MHB II + 0.05% Sodium Pyruvate) | MIC (S. aureus ATCC 29213; MHB II + 0.05% Catalase) | MIC (S. aureus ATCC 29213; MHB II + 0.05% L-ascorbic Acid) | MIC (S. aureus ATCC 29213; MHB II + 0.05% L-cysteine) | MIC (S. aureus ATCC 29213; MHB II + 0.05% Thioglycolate) | MIC (S. aureus ATCC 29213; MHB II + 2% Oxyrase) | further results
1 | CN(C)c1ccc(O)c2c1C[C@H]1C[C@H]3[C@H](N(C)C)C(O)=C(C(N)=O)C(=O)[C@@]3(O)C(O)=C1C2=O [Minocycline] | 4 µg/mL | 4 µg/mL | 4 µg/mL | 2 µg/mL | 8 µg/mL | 4 µg/mL (≈ 8.74 µM) | 1 µg/mL | 4 µg/mL | 2 µg/mL | 0.5 µg/mL | 1 µg/mL | 0.5 µg/mL | 0.5 to 1 µg/mL (≈ 1.09 to 2.19 µM) | 0.5 to 1 µg/mL (≈ 1.09 to 2.19 µM) | 0.25 µg/mL | 0.5 µg/mL | 1 µg/mL | 0.25 µg/mL | 0.25 µg/mL | 0.12 to 0.25 µg/mL | MIC (E. faecalis ATCC 29212; 2% Oxyrase): 2 µg/mL (≈ 4.37 µM); MIC (E. faecalis ATCC 29212; MHB II + 2% Oxyrase): 2 to 4 µg/mL; MIC (E. faecalis ATCC 29212; [2]): 4 to 8 µg/mL (≈ 8.74 to 17.5 µM); MIC (E. faecalis ATCC 29212; No Oxyrase): 4 µg/mL (≈ 8.74 µM); MIC (P. aeruginosa ATCC 27853; 2% Oxyrase): 16 µg/mL (≈ 35 µM); MIC (P. aeruginosa ATCC 27853; No Oxyrase): > 16 µg/mL; MIC (E. coli ATCC 25922; 2% Oxyrase): 0.5 µg/mL (≈ 1.09 µM); MIC (E. coli ATCC 25922; No Oxyrase): 1 µg/mL (≈ 2.19 µM); MIC (S. aureus ATCC 25923; 2% Oxyrase): 0.12 µg/mL (≈ 0.262 µM); MIC (S. aureus ATCC 25923; No Oxyrase): 0.25 µg/mL (≈ 0.546 µM); MIC (S. aureus ATCC 29213; [1]): 0.12 to 0.5 µg/mL (≈ 0.262 to 1.09 µM); MIC (S. aureus ATCC 29213; [2]): 0.25 to 0.5 µg/mL (≈ 0.546 to 1.09 µM)
2 | CN(C)[C@@H]1C(O)=C(C(N)=O)C(=O)[C@@]2(O)C(O)=C3C(=O)c4c(O)cccc4[C@@](C)(O)[C@H]3C[C@@H]12 [Tetracycline] | 16 µg/mL | > 4 µg/mL | > 4 µg/mL | 16 µg/mL | > 16 µg/mL | > 4 µg/mL | 4 µg/mL | > 4 µg/mL | 4 µg/mL | 2 µg/mL | 4 µg/mL | 1 µg/mL | 1 to 2 µg/mL (≈ 2.25 to 4.5 µM) | 1 to 2 µg/mL (≈ 2.25 to 4.5 µM) | 1 µg/mL | 1 µg/mL | 2 µg/mL | 1 µg/mL | 1 µg/mL | 0.5 to 1 µg/mL | MIC (S. aureus ATCC 29213; [1]): 1 to 2 µg/mL (≈ 2.25 to 4.5 µM); MIC (S. aureus ATCC 29213; [2]): 0.5 to 1 µg/mL (≈ 1.13 to 2.25 µM)
3 | CN(C)CC(=O)Nc1cc(N(C)C)c2c(c1O)C(=O)C1=C(O)C3(O)C(=O)C(C(N)=O)=C(O)C(N(C)C)C3CC1C2 (stereo not shown) [DMG-MINO, N,N-dimethylglycylamido 9-aminominocycline] | – | – | – | – | – | – | – | – | – | – | – | – | – | – | – | – | – | – | – | – | Minimal Inhibitory Concentration (E. faecalis ATCC 29212; 2% Oxyrase): 0.03 µg/mL; Minimal Inhibitory Concentration (E. faecalis ATCC 29212; No Oxyrase): 0.25 µg/mL; Minimal Inhibitory Concentration (P. aeruginosa ATCC 27853; 2% Oxyrase): 16 µg/mL; Minimal Inhibitory Concentration (P. aeruginosa ATCC 27853; No Oxyrase): 16 µg/mL; Minimal Inhibitory Concentration (E. coli ATCC 25922; 2% Oxyrase): 0.06 µg/mL; Minimal Inhibitory Concentration (E. coli ATCC 25922; No Oxyrase): 0.25 µg/mL; Minimal Inhibitory Concentration (S. aureus ATCC 25923; 2% Oxyrase): 0.12 µg/mL; Minimal Inhibitory Concentration (S. aureus ATCC 25923; No Oxyrase): 0.50 µg/mL
4 | CN(C)CC(=O)Nc1ccc2c(c1O)C(=O)C1=C(O)C3(O)C(=O)C(C(N)=O)=C(O)C(N(C)C)C3CC1C2 (stereo not shown) [DMG-DMDOT, N,N-dimethylglycylamido 9 amino-6-demethyl-6-deoxytetracycline] | – | – | – | – | – | – | – | – | – | – | – | – | – | – | – | – | – | – | – | – | Minimal Inhibitory Concentration (E. faecalis ATCC 29212; 2% Oxyrase): 0.06 µg/mL; Minimal Inhibitory Concentration (E. faecalis ATCC 29212; No Oxyrase): 0.06 µg/mL; Minimal Inhibitory Concentration (P. aeruginosa ATCC 27853; 2% Oxyrase): 8 µg/mL; Minimal Inhibitory Concentration (P. aeruginosa ATCC 27853; No Oxyrase): 16 µg/mL; Minimal Inhibitory Concentration (E. coli ATCC 25922; 2% Oxyrase): 0.12 µg/mL; Minimal Inhibitory Concentration (E. coli ATCC 25922; No Oxyrase): 0.12 µg/mL; Minimal Inhibitory Concentration (S. aureus ATCC 25923; 2% Oxyrase): 0.12 µg/mL; Minimal Inhibitory Concentration (S. aureus ATCC 25923; No Oxyrase): 0.25 µg/mL
